{
  "source": "patent US10471111B2",
  "about": "“Lactobacillus and composition for preventing, improving, or treating degenerative brain diseases or cognitive function disorders” (University-Industry Cooperation Group of Kyung Hee …, priority 2015, dated 2019)",
  "format_in_all_cases": "in vivo, ICR male mice",
  "key": {"[1]": {"system": "mice induced to have memory impairment by scopolamine", "experiment": "Passive Avoidance test, memory impairment by scopolamine", "settings": "scopolamine 1 mg/kg; lactic acid bacteria 1×10^9 CFU or donepezil 5 mg/kg daily for three days; measured up to 300 seconds", "excerpt": "In the Passive Avoidance test apparatus, which is divided into the first and second space, there is a guillotine-like door that connects the two spaces. By using lightings, the first space was kept bright while the second space was kept dark. On the floor of the second space that was kept dark was placed an electric grid that flowed 0.5 mA of electric shock for three seconds in the case of the animal moving to the dark space.\n(§1) The selected 13 types of lactic acid bacteria were each suspended in physiological saline at the concentration of 1×10^10 CFU/ ? , and then the suspension was administered to mice of the test animal (5-week-old ICR male mice from Raonbio), at the dosage of 0.1 ? (equivalent to 1×10^9 CFU of lactic acid bacteria) on a daily basis for three days. […]\nOn the third day after administering the drug, an hour after administering lactic acid bacteria or positive control drug, 1 mg/kg (body weight) of scopolamine (cholinergic blocking drug inducing cognitive ability disorder or memory damage), dissolved in distilled water, was administered in the abdomen while the normal group was administered with physiological saline in the abdomen. […] With 10 seconds of observation, the guillotine-like door is opened, the time that the mice in each experimental group took to have all of their four feet inside the second space was measured up to 300 seconds, whose result is shown in Table 8. […]"}, "[2]": {"system": "mice induced to have memory impairment by scopolamine", "experiment": "Y-maze test, memory impairment by scopolamine", "experimental": "Apparatus used in the Y-maze test consists of three arms with each being 42 cm in length, 3 cm in width and 12 cm in height. The three arms, made from black polyvinyl resin, were placed at an angle of 120 degrees.\nas §1\nAn hour after the final administration of lactic acid bacteria or positive control drug, 1 mg/kg (body weight) of scopolamine (cholinergic blocking drug inducing cognitive ability disorder or memory impairment), dissolved in distilled water, was administered in the abdomen while the normal group was administered with physiological saline in the abdomen. half an hour after the administration of scopolamine, the mouse was carefully placed in one of the three arms, A, B, and C, in the Y-maze and allowed to freely move for eight minutes, and then the arm in which the mouse moved was recorded. In the experiment, the arm was recorded as a case in which the test animal moved only when the entire body including the tail was inside the arm, or when the mouse moved back in. […]"}, "[3]": {"system": "mice induced to have memory impairment by Proteus mirabilis K21", "experiment": "Y-maze test, memory impairment by Proteus mirabilis K21", "settings": "Proteus mirabilis K21 1×10^9 CFU for five days, then lactic acid bacteria 1×10^9 CFU or donepezil 5 mg/kg daily for five days", "experimental": "Proteus mirabilis K21 separated from the animal with damaged memory was administered to the mice to induce memory impairment (similar symptoms to […]), and Y-maze test was conducted to measure the improvement effect of lactic acid bacteria for cognitive ability.\nIn more detail, Proteus mirabilis K21 was administered to a mouse (5-week-old ICR male mice from Raonbio) that was fed for a week in the animal laboratory at the dosage of 1×10^9 CFU on a daily basis for five days to induce memory impairment. In the meantime, the normal group was administered with physiological saline instead of Proteus mirabilis K21. […]\nAn hour after the final administration of drug, the mouse was carefully placed in one of the three arms, A, B, and C, in the Y-maze and allowed to freely move for eight minutes, and then the arm in which the mouse moved was recorded. In the experiment, the arm was recorded as an arm in which the test animal moved only when the entire body including the tail was inside the arm, or when the mouse moved back in. […] The experimental result was calculated by the formula below (Sarter, M. et al., Psychopharmacology., 94, pp 491-495, 1998), as shown in Table 12 below. […]"}},
  "data": [
    {"smiles": "COc1cc2c(cc1OC)C(=O)C(CC1CCN(Cc3ccccc3)CC1)C2", "note": "(stereo not shown) [donepezil]", "values": [
      {"measurement": "Latency time", "setting": "[1]", "result": 66.4, "unit": "s"},
      {"measurement": "Alternation behavior", "setting": "[2]; Y-maze test, Table 11, scopolamine, red bean suspension or ferment 0.2 g per mouse, CJLJ103 2 × 10^8 CFU per mouse daily", "result": 63.2, "unit": "%"},
      {"measurement": "Alternation behavior", "setting": "[2]; scopolamine 1 mg/kg, lactic acid bacteria 1×10^9 CFU or donepezil 5 mg/kg daily for three days", "result": 65.8, "unit": "%"},
      {"measurement": "Alternation behavior", "setting": "[3]", "result": 58.6, "unit": "%"}
    ]}
  ]
}
